For orientation: EC50 means the midpoint of the concentration-response curve. Lower therefore signals a more potent agent.

Here are results for one sequence from patent US20090170762A1, “Treatment of Diabetes Related Obesity” (UUTech Limited, priority 2005, published 2009).

Ends that are not written are not given here.

The target in one assay is T1, human GIP-R (Homo sapiens, UniProt P48546).
T1 construct: expressed in transfected cells; host or cells: Chinese Hamster Lung (CHL) fibroblast cells, stably transfected
T1 sequence (P48546 22-466): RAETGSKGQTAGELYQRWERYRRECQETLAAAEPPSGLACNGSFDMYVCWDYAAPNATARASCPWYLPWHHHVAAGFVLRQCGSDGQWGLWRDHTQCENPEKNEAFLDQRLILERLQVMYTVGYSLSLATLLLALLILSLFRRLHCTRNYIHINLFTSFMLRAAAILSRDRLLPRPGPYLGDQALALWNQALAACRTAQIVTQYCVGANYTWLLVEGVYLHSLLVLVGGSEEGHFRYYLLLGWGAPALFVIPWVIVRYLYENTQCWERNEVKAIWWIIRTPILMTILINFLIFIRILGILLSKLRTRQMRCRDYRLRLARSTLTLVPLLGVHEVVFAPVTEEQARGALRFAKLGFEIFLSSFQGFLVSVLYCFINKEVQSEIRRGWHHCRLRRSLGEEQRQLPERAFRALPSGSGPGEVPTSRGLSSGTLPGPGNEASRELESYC
Briefly: Cyclic AMP production in GIP-R transfected CHL cells. It is filed as cell-based. The procedure, abridged:
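Cells washed in ice-cold HBS buffer (5.6 mm glucose, pH 7.4), then lysed in TCA/SDS solution with unlabelled cAMP and ATP. Tritiated cAMP formation measured by Dowex and alumina ion-exchange column chromatography.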

A further assay concerns Swiss TO mice. The assay is described as follows: Daily (Pro3)GIP for 90 days in normal (TO) mice fed high fat, cafeteria, high carbohydrate or normal diets. The note with it: for Glycated Hemoglobin (%): 25 nmol/kg bw/day. It is filed as in vivo, mouse. The procedure: Young obese diabetic (ob/ob) mice derived from the colony maintained at Aston University, UK (Bailey, C. J. et al., 1982, Int. J. Obes. 6:11-21) were used at 5-7 weeks of age. Normal lean control mice from the same colony were used in comparative experiments (See Example 6, below). Animals were age-matched, divided into groups and housed individually in an air-conditioned room at 22±2° C. with a 12 hours light:12 hours dark cycle (08:00-20:00 hours). Drinking water and a standard rodent maintenance diet (Trouw Nutrition, Cheshire, UK) were freely available. In a separate experiment, Swiss Tylers Original (TO) mice purchased from Harlan Ltd. (Bicester, UK) were used at 5-7 weeks of age. Animals were housed as for ob/ob mice and given drinking water ad libitum. Normal TO mice were allowed free access to fed high fat diet (45% fat, 20% protein, 35% carbohydrate, 26.15 MJ/kg), high carbohydrate diet (10% fat, 20% protein, 70% carbohydrate, 18.80 MJ/kg) (Special Diets Service, Witham, Essex, UK), cafeteria diet (corresponding to approximately 33% fat, 19% protein, 48% carbohydrate, 16.39 MJ/kg) or normal rodent maintenance diet (10% fat, 30% protein, 60% carbohydrate; 14.2 MJ/kg, Trouw Nutrition, Cheshire, UK). The cafeteria diet comprised 6 daily rotations of 2 palatable food items per day (2 from: tuna, peanut butter, crisps, chocolate biscuits, madera cake, chocolate, luncheon meat, sausages, corned beef, cheese, marzipan). All animal experiments were carried out in accordance with the UK Animals (Scientific Procedures) Act 1986.
Food intake and body weight were recorded daily while plasma glucose and insulin concentrations were monitored at intervals of 3-6 days. Whole blood for the measurement of glycated hemoglobin was taken on day 60. In addition, plasma samples for measurement of cholesterol, circulating triglycerides, HDL-cholesterol (HDL-C) and LDL-cholesterol (LDL-C) were taken on day 60. […] Mice fasted for 18 hours were used to examine the metabolic response to 15 minutes feeding on day 60. In a separate series, pancreatic tissues were excised at the end of the 60-day treatment period and processed for immunohistochemistry or measurement of insulin following extraction with 5 ml/g of ice-cold acid ethanol (750 ml ethanol, 235 ml water, 15 ml concentrated HCl). Blood samples taken from the cut tip of the tail vein of conscious mice at the times indicated in the Figures were immediately centrifuged using a Beckman microcentrifuge (Beckman instruments, UK) for 30 seconds at 13,000×g. The resulting plasma was then aliquoted into fresh Eppendorf tubes and stored at −20° C. prior to glucose and insulin determinations. Normal control mice from the same genetic background were used for comparative purposes. […] Body weights were recorded daily and blood for determination of glycated hemoglobin was collected at end of study period.
Plasma glucose was assayed by an automated glucose oxidase procedure (Stevens, J. F., 1971, Clin. Chem. Acta 32:199-201) using a Beckman Glucose Analyzer II (Beckman Instruments, Galway, Ireland). Plasma and pancreatic insulin were assayed by a modified dextran-coated charcoal radioimmunoassay (Flatt, P. R., Bailey, C. J., 1981, Diabetologia 20:573-577). Plasma triglyceride and cholesterol levels were measured using a Hitachi Automatic Analyser 912 (Boehringer Mannheim, Germany). Glycated hemoglobin was determined using a commercially available kit purchased from Chirus Ltd. (Watford, UK).
Normal mice were fed the different diets indicated above ad libitum from 4-5 weeks of age. Treated groups of mice received intraperitoneal injection of ProGIP (25 nmoles/kg body weight) each day.

The mark [1] stands for this setting: normal mice fed high fat or cafeteria diets, 90 days.

Consider “YAPGTFISDYSIAMDKIHQQDFVNWLLAQKGKKNDWKHNITQ [(Pro^3)GIP]”, for which the half-maximal effective concentration (EC50) on human GIP-R was found to be 207 nM. The remaining activity at 0.1 µM at human GIP-R (CHL, read-out: cAMP response in presence of 10^-7 M GIP (% GIP max)) is 66 ± 7%. Moreover, the “inhibition of GIP-stimulated cAMP production” value on human GIP-R (in presence of GIP (10^-7 m)) is “significantly inhibited”. Besides, the “Glycated Hemoglobin (%)” value in the assay with Swiss TO mice (Cafeteria diet, 90 days) was 4.0 ± 0.32 %; with Swiss TO mice (High Carbohydrate diet, 90 days), 4.3 ± 0.12%; in the assay with Swiss TO mice (High Fat diet, 90 days), 4.0 ± 0.21 %; in the assay on Swiss TO mice (Normal diet, 90 days), 3.9 ± 0.14%. The “body weight and glycated hemoglobin (parameters measured)” value in the assay with Swiss TO mice (high carbohydrate or normal diets) is given as “did not affect”. Moreover, in the assay with Swiss TO mice (high fat diet, lesser extent cafeteria diet), the “body weight gain induced by excessive energy intake” value is “counters body weight gain”. The “decrease in body weight” value with Swiss TO mice (setting [1]) is “up to 20%”. For the same sequence, in the assay on Swiss TO mice (setting [1]), the “decrease in glycated hemoglobin” value is “greater than 1%”.
